# Test results taken from patent publication US10682371B2, “Small molecule conjugates specifically activated in tumor microenvironment for targeting and use thereof” (priority 2014, dated 2020).
# Key:
# macrophage = experiment: Macrophage precursor antigen (F4/80) positive cells in CD45 positive cells of scar/CNV tissue, flow cytometry; type: in vivo, C57 mice; details: 50 mW laser, 48 hours after treatment
# Procedure: (§1) Production and treatment of scar. […] Two weeks later, eye tissues were taken from 4 animals of each group for immunohistochemical (HE) staining. For another 4 animals, they were subjected to fixed irradiation through photocoagulation by 50 mW laser and then to treatment. 48 hours later, their eye tissues were taken, homogenated, filtered to isolate individual cells in the scar and choroidal neovascularization (CNV) tissues. The cells were washed by buffer twice and stained by biotin-conjugated anti-F4/80 (biotin-labeled precursor cell antigen from macrophage) and FITC-conjugated anti-CD45 (isothiocyanate fluorescein labeled leucocyte common antigen) at ambient temperature for 1 hour. Then the cells were washed by PBS containing 1% fetal bovine serum twice and then analyzed for the ratio of the macrophage precursor antigen positive cells in the leucocyte common antigen (CD45) positive cells by flow cytometry.
# [1] = Multiple tumor models in nude mice: HT1080; type: in vivo; details: Human colon caner HT1080; 15 mg/kg once weekly for three weeks; Day 26
# Procedure: (§2) 1) Corresponding tumor cells were purchased from American type culture collection (ATCC) and identified according the specification provided by ATCC. Cells were cultivated in DMEM culture solution containing 10% fetal bovine serum at 37° C. and 5% CO2. The cells were passaged for every three days and cells within the 15th passage were used.
# (§3) 2) Production of tumor. 5×10^6 corresponding cells were subcutaneously injected to the back of the nude mice. Mice were randomly grouped after the tumor reached at least 100 mm^3. Then treatment began and the day on which the treatment began was day 1.
# (§4) 3) Course of treatment. […] The control group was administered by physiological saline. Animals were administered once weekly for three weeks.
# (§5) 3) Course of treatment. According to the clinical application of A1, A1 was administered in a dose of ⅙ MTD, i.v., 17.6 μmol/kg. The control group was administered by physiological saline. Animals were administered once weekly for three weeks.
# (§6) 3) Course of treatment. According to the clinical application of B1, B1 was administered in a dose of ⅙ MTD, i.v., 17.6 μmol/kg. The control group was administered by physiological saline. Animals were administered once weekly for three weeks.
# as §4, §4
# [2] = test system: Human chronic leukemia K562; experiment: Multiple tumor models in nude mice: K562; type: in vivo; details: 15 mg/kg once weekly for three weeks, Day 26
# Procedure: as §2, §3, §4, §5, §6, §4, §4
# Panc-1 cells = experiment: Tumor treatment in nude mice, Panc-1 model (Example 60); type: in vivo; details: for Size of tumor (mm^3) Day 10 / inhibitory rate on tumor Day 10 / Size of tumor (mm^3) Day 24 / inhibitory rate on tumor Day 24: Panc-1 in nude mice, IV once weekly for four weeks, E1-E4 15 mg/kg, mitomycin 2 mg/kg; for Inhibition on tumor growth, in words: Panc-1, compared with mitomycin group and control group
# Procedure: as §2, with “Panc-1” for “Corresponding tumor”
# 2) Production of tumor. 5×10^6Panc-1 cells were subcutaneously injected to the back of the nude mice. Mice were randomly grouped after the tumor reached at least 100 mm^3. Then treatment began and the day on which the treatment began was day 1.
# (§7) […]. The control group was administered by physiological saline. Drugs were administered once weekly for four weeks.
# [3] = test system: Human ovarian cancer SK-OV-3; experiment: Multiple tumor models in nude mice: SK-OV-3; type: in vivo; details: 15 mg/kg once weekly for three weeks, Day 26
# Procedure: as §2, §3, §4, §5, §6, §4, §4
# [4] = test system: Human non-small cell lung cancer A549; experiment: Multiple tumor models in nude mice: A549; type: in vivo; details: 15 mg/kg once weekly for three weeks, Day 26
# Procedure: as §2, §3, §4, §5, §6, §4, §4
# HT1080 cells = experiment: Tumor treatment in nude mice, HT1080 model (Example 61); type: in vivo; details: for Size of tumor (mm^3) Day 13 / inhibitory rate on tumor Day 13 / Size of tumor (mm^3) Day 26 / inhibitory rate on tumor (Day 26): HT1080 in nude mice, IV once weekly for four weeks, E1-E4 15 mg/kg, mitomycin 2 mg/kg; for Inhibition on tumor growth, in words: HT1080, compared with mitomycin group and control group
# Procedure: as §2, with “HT1080” for “Corresponding tumor”
# 2) Production of tumor. 5×10^6 HT1080 cells were subcutaneously injected to the back of the nude mice. Mice were randomly grouped after the tumor reached at least 100 mm^3. Then treatment began and the day on which the treatment began was day 1.
# as §7
# [5] = test system: Human pancreatic cancer Panc-1; experiment: Multiple tumor models in nude mice: Panc-1; type: in vivo; details: 15 mg/kg once weekly for three weeks, Day 26
# Procedure: as §2, §3, §4, §5, §6, §4, §4
# Human liver cancer Hepg2 = experiment: Multiple tumor models in nude mice: Hepg2; type: in vivo; details: 15 mg/kg once weekly for three weeks, Day 26
# Procedure: as §2, §3, §4, §5, §6, §4, §4
# [6] = test system: Human renal cancer OS-RC-2; experiment: Multiple tumor models in nude mice: OS-RC-2; type: in vivo; details: 15 mg/kg once weekly for three weeks, Day 26
# Procedure: as §2, §3, §4, §5, §6, §4, §4
# [7] = test system: scar and choroidal neovascularization (CNV); experiment: Inhibition of scar and choroidal neovascularization (CNV) by eye drops after laser photocoagulation; type: in vivo, C57 mice; details: for Maximal scar radius observed by pathological staining (pixel): 150 mW laser photocoagulation, eye drops daily, two weeks, C57 mice; for Treatment effect on scar radius and inhibition of macrophage, in words: eye drops, compared to the control group and the mitomycin group
# Procedure: Animal: C57 mice of 16 weeks old, all female and 8 animals in each group.
# as §1
SMILES,F4/80+ cells among CD45+ cells (%) (macrophage),inhibitory rate on tumor (Day 26) [1] [%],inhibitory rate on tumor (Day 26) [2] [%],Size of tumor (mm^3) Day 10 (Panc-1 cells) [mm^3],inhibitory rate on tumor Day 10 (Panc-1 cells) [%],Size of tumor (mm^3) Day 24 (Panc-1 cells) [mm^3],inhibitory rate on tumor Day 24 (Panc-1 cells) [%],"Inhibition on tumor growth, in words (Panc-1 cells)",inhibitory rate on tumor (Day 26) [3] [%],inhibitory rate on tumor (Day 26) [4] [%],Size of tumor (mm^3) Day 13 (HT1080 cells) [mm^3],inhibitory rate on tumor Day 13 (HT1080 cells) [%],Size of tumor (mm^3) Day 26 (HT1080 cells) [mm^3],inhibitory rate on tumor (Day 26) (HT1080 cells) [%],"Inhibition on tumor growth, in words (HT1080 cells)",inhibitory rate on tumor (Day 26) [5] [%],inhibitory rate on tumor (Day 26) (Human liver cancer Hepg2) [%],inhibitory rate on tumor (Day 26) [6] [%],Maximal scar radius observed by pathological staining (pixel) [7] [pixel],"Treatment effect on scar radius and inhibition of macrophage, in words [7]"
"COCCOCC(=O)N[C@H](C)C(=O)N[C@H](C)C(=O)N[C@H](CC(N)=O)C(=O)Nc1ccc(COC(=O)N2[C@@H]3CN4C5=C(C(=O)C(N)=C(C)C5=O)[C@H](COC(N)=O)[C@]4(OC)[C@@H]32)cc1 [Compound E1, 2-(2-methoxyethoxy) acetyl-L-Ala-L-Ala-L-Asn-4-amino benzyl mitomycin]",7.1 ± 1.4,95.4,77.3,76.42 ± 14.96,35.7,84.62 ± 45.94,66.1,greatly improved,84.5,95.3,438.15 ± 47.96,51.9,331.57 ± 114.74,78.9,greatly improved,86.5,85.7,81.3,332 ± 124,greatly improved treatment effect on scar radius and inhibition of macrophage
COCCOCCOCCOCCOCCOCC(=O)N[C@H](C)C(=O)N[C@H](C)C(=O)N[C@H](CC(N)=O)C(=O)Nc1ccc(COC(=O)N2[C@H]3[C@@H]2CN2C4=C(C(=O)C(N)=C(C)C4=O)[C@H](COC(N)=O)[C@]32OC)cc1 [Compound E2],7.7 ± 1.7,–,–,60.17 ± 30.26,36.4,42.39 ± 62.24,83.01,greatly improved,–,–,378.11 ± 68.46,58.5,137.60 ± 156.42,91.3,greatly improved,–,–,–,348 ± 146,greatly improved treatment effect on scar radius and inhibition of macrophage
"CO[C@@]12[C@H](COC(N)=O)C3=C(C(=O)C(C)=C(N)C3=O)N1C[C@@H]1N[C@@H]12 [mitomycin, reference compound]",14.6 ± 2.4,–,–,118.85 ± 36.47,7.5,249.54 ± 95.46,27.9,–,–,–,876.48 ± 78.29,3.7,1410.28 ± 375.46,10.4,–,–,–,–,953 ± 249,–
